Laboratory results from patent EP0199840B1, “Use of a diamine for the preparation of a softener for erythrocytes” (Barnikol, Wolfgang, Prof. Dr.Dr., priority 1985, dated 1986).

Test system: Erythrozyten
Experiment: Erythrocyte filtration test: specific filtration time (FZsp) of an 8% suspension of purified erythrocytes through 5 µm polycarbonate (Nuclepore) membrane filters
Type: cell-based, gesunden Probanden
Conditions: for Wirkung auf FZsp compared with Ausführungsbeispiel 1 (result in words): carried out as in Ausführungsbeispiel 1 (0 to 100 mmol/I; 1,5 Stunden; pH=7,4; 22°C; there FZsp reduced to 30% at 50 mmol/I)
From the text: Es wurde nun gefunden, daß es, um die Erythrozyten-weichmachende Wirkung einer Substanz mit Hilfe eines Filtrationstests festzustellen, unerlässlich ist, die Erythrozyten quantitativ von den andern Blutzellen abzutrennen, weil auch sehr geringe Zellverunreinigungen den Test übermä-βig stark stören Daher wurde ein Testverfahren einschließlich eines Reinigungsverfahrens mit Hilfe der Dichtezentrifugation in synthetischem Polysaccharid (Ficoll® 400, Deutsche Pharmazia, Freiburg, Bundesrepublik Deutschland) erarbeitet; als Literaturstelle sei hingewiesen auf: Barnikol et al., Funkt, Biol. Med. 1 (1982), 242-244.
Im Prinzip wird hierbei die sogenannte spezifische Filtrierzeit (FZsp) einer 8%igen Erythrozytensuspension an 5 um Polycarbonat (Nuclepore-^@) Membran-filtern bestimmt. Das Meßverfahren wurde insofern gegenüber der ursprünglichen Vorschrift modifiziert, als nunmehr lediglich die Anfangsgeschwindigkeit gemessen wird, also je nach Dauer variable Tropfenzahlen vermessen werden, sowie der Zeitbedarf für eine bestimmte Tropfenzahl, nämlich 10, bereichnet wurde.
Es gilt die Formel [formula] wobei: • t=Filtrierzeit für 10 Tropfen der Suspension • to=Filtrierzeit für 10 Tropfen des Suspensionsmittels • FZsp ist ein Maß für die Steifigkeit.
Erthrozyten von mehreren gesunden Probanden werden wie oben angegeben (Barnikol et al., 1982) präpariert und eine 8 Vol.-%ige Zellsuspension hergestellt unter Zugabe von Glukose (100 mg/dl). Den Suspensionen werden steigende Mengen von DMAEA von 0 bis 100 mmol/I zugesetzt. Die Proben werden 1,5 Stunden unter langsamen Schwenken belassen bei pH=7,4 und 22°C und danach FZsp gemessen: Bei 50 mmol/I wird FZsp auf 30% des Ausgangswertes verringert.

Structure (SMILES) | Wirkung auf FZsp compared with Ausführungsbeispiel 1 (result in words) | other results
CN(C)CCN [DMAEA, Dimethylaminoethylamin] |  | activity at 50000 µM (Homo sapiens, Erythrocyte, 1.5 h, pH 7.4, 50 mmol/I, 8 Vol.-%ige Zellsuspension with Glukose (100 mg/dl), 1,5 Stunden, pH=7,4, 22°C, read-out: FZsp (spezifische Filtrierzeit), % des Ausgangswertes): 30%
CC(=O)CCCCn1c(=O)c2c(ncn2C)n(C)c1=O [Pentoxifyllin, 3,7-Dimethyl-1-(5-oxohexyl)-xanthin, reference compound] |  | Wirkung auf FZsp (result in words) (0,1 mmol/1 to 15 mmol/I, 22°C, pH=7,40, FZsp not significantly reduced): unwirksam
CCN(CC)CCN(CC)CC [TEEDA, Tetraethylethylendiamin] | gleich Wirkung | 
CN(C)CCN(C)C [TMEDA, Tetramethylethylendiamin] | gleiche Wirkung | 
